From US20230107642A1 (Erasca, Inc., priority 2020, published 2023)

target: T1, K-Ras G12C (Homo sapiens, UniProt P01116, G12C); assay: CAF assay (% CAF; method in Example 7, not in this part); format: binding; conditions: 10 uM compound, 1 h incubation
T1 construct: This protein contained 188 amino acids in total, including an N-terminal 6-Histidine tag; made in house; host or cells: E. coli BL21

Compound	% CAF @ 10 uM, 1h
C=CC(=O)N1CCN(c2nc(=O)n3c4c(c(-c5ccc(F)cc5F)c(Cl)cc24)SC[C@@H]3CN2CCN(C3CC3)CC2)[C@@H](C)C1 [Example 422, (3S)-7-((S)-4-acryloyl-2-methylpiperazin-1-yl)-9-chloro-3((4-cyclopropylpiperazin-1-yl)methyl)-10-(2,4-difluorophenyl)-2H-[1,4]thiazino[2,3,4-ij]quinazolin-5(3H)-one]	84.2%
CN(C)C/C=C/C(=O)N1C2CC(=O)CC1CN(c1nc(=O)n3c4c(c(-c5ccc(F)cc5F)c(C(F)(F)F)cc14)SCC3)C2 [Example 420, (E)-10-(2,4-difluorophenyl)-7-(9-(4-(dimethylamino)but-2-enoyl)-7-oxo-3,9-diazabicyclo[3.3.1]nonan-3-yl)-9-(trifluoromethyl)-2,3-dihydro-5H-[1,4]thiazino[2,3,4-ij]quinazolin-5-one]	93%
C=CC(=O)N1CCN(c2nc(=O)n3c4c(c(-c5ccc(F)cc5F)c(Cl)cc24)SC[C@H](OC)C3)[C@@H](C)C1 [Example 488, (3R)-8-((S)-4-acryloyl-2-methylpiperazin-1-yl)-10-chloro-11-(2,4-difluorophenyl)-3-methoxy-3,4-dihydro-2H,6H-[1,4]thiazepino[2,3,4-ij]quinazolin-6-one]	96%
C=CC(=O)N1C[C@H](C)N(c2nc(=O)n3c4c(c(-c5cccc6cnn(C)c56)c(Cl)cc24)SC[C@@H]3CN2CCN(CC(F)F)CC2)C[C@H]1C (atropisomer, axis not shown) [Example 570, (3S,10S)-7-((2S,5R)-4-acryloyl-2,5-dimethylpiperazin-1-yl)-9-chloro-3-((4-(2,2-difluoroethyl)piperazin-1-yl)methyl)-10-(1-methyl-1H-indazol-7-yl)-2,3-dihydro-5H-[1,4]thiazino[2,3,4-ij]quinazolin-5-one]	0%
[2H]C1([2H])N(C(=O)C=C)C([2H])([2H])C([2H])([2H])N(c2nc(=O)n3c4c(c(-c5ccc(F)cc5F)c(C(F)(F)F)cc24)SCC2(COC2)C3)C1([2H])[2H] [Example 589, 8′-(4-Acryloylpiperazin-1-yl-2,2,3,3,5,5,6,6-d8)-11′-(2,4-difluorophenyl)-10′-(trifluoromethyl)-2′H,4′H,6′H-spiro[oxetane-3,3′-[1,4]thiazepino[2,3,4-ij]quinazolin]-6′-one]	92.9%

Further lines, results first:

% CAF @ 10 uM, 1h	Compound
61.3%	C=CC(=O)N1C[C@H](C)N(c2nc(=O)n3c4c(c(-c5ccc(F)cc5F)c(Cl)cc24)SC[C@@H]3CN2C[C@@H]3C[C@H]2CO3)C[C@H]1C [Example 519, (3S)-3-((1S,4S)-2-oxa-5-azabicyclo[2.2.1]heptan-5-ylmethyl)-7-((2S,5R)-4-acryloyl-2,5-dimethylpiperazin-1-yl)-9-chloro-10-(2,4-difluorophenyl)-2H-[1,4]thiazino[2,3,4-ij]quinazolin-5(3H)-one]
96%	C=CC(=O)N1CCN(c2nc(=O)n3c4c(c(-c5cc(Cl)c(F)cc5F)c(C(F)(F)F)cc24)SC[C@H](OC)C3)[C@@H](C)C1 [Example 533, (3R)-8-((S)-4-acryloyl-2-methylpiperazin-1-yl)-11-(5-chloro-2,4-difluorophenyl)-3-methoxy-10-(trifluoromethyl)-3,4-dihydro-2H,6H-[1,4]thiazepino[2,3,4-ij]quinazolin-6-one]
95%	C=CC(=O)N1CCN(c2nc(=O)n3c4c(c(-c5ccc(F)cc5F)c(C(F)(F)F)cc24)SC[C@@H](OC)C3)[C@@H](C)C1 [Example 464, (3S)-8-((S)-4-acryloyl-2-methylpiperazin-1-yl)-11-(2,4-difluorophenyl)-3-methoxy-10-(trifluoromethyl)-3,4-dihydro-2H,6H-[1,4]thiazepino[2,3,4-ij]quinazolin-6-one]
13.9%	C=CC(=O)N1CCN(c2nc(=O)n3c4c(c(-c5c(F)cc(F)cc5F)c(Cl)cc24)SC[C@H]3CN2CCN(CC)CC2)[C@@H](C)C1 [Example 424, (R)-7-((S)-4-acryloyl-2-methylpiperazin-1-yl)-9-chloro-3-((4-ethylpiperazin-1-yl)methyl)-10-(2,4,6-trifluorophenyl)-2H-[1,4]thiazino[2,3,4-ij]quinazolin-5(3H)-one]
57.8%	C=CC(=O)N1CCN(c2nc(=O)n3c4c(c(-c5cc(F)c(F)cc5F)c(Cl)cc24)SC[C@@H]3CN2CCC3(CC2)COC3)[C@@H](C)C1 [Example 469, (3S)-3-(2-oxa-7-azaspiro[3.5]nonan-7-ylmethyl)-7-((S)-4-acryloyl-2-methylpiperazin-1-yl)-9-chloro-10-(2,4,5-trifluorophenyl)-2H-[1,4]thiazino[2,3,4-ij]quinazolin-5(3H)-one]
96%	C=CC(=O)N1CCN(c2nc(=O)n3c4c(c(-c5ccc(F)cc5F)c(C(F)(F)F)cc24)SC[C@@H](OC)C3)CC1 [Example 489, (3S)-8-(4-acryloylpiperazin-1-yl)-11-(2,4-difluorophenyl)-3-methoxy-10-(trifluoromethyl)-3,4-dihydro-2H,6H-[1,4]thiazepino[2,3,4-ij]quinazolin-6-one]
73.3%	C=CC(=O)N1CCN(c2nc(=O)n3c4c(c(-c5ccc(F)c6cccnc56)c(Cl)cc24)SC[C@@H]3COC)[C@@H](C)C1 [Example 474, (3S)-7-((S)-4-acryloyl-2-methylpiperazin-1-yl)-9-chloro-10-(5-fluoroquinolin-8-yl)-3-(methoxymethyl)-2,3-dihydro-5H-[1,4]thiazino[2,3,4-ij]quinazolin-5-one]
95.8%	C=CC(=O)N1CCN(c2nc(=O)n3c4c(c(-c5ccc(F)cc5F)c(C(F)(F)F)cc24)SC[C@@H]3COC)[C@@H](C)C1 [Example 435, (3S)-7-((S)-4-acryloyl-2-methylpiperazin-1-yl)-10-(2,4-difluorophenyl)-3-(methoxymethyl)-9-(trifluoromethyl)-2H-[1,4]thiazino[2,3,4-ij]quinazolin-5(3H)-one]

same assay, conditions: 10 uM, 1 h; Table 3

Compound	% CAF @ 10 uM, 1h
C=CC(=O)N1CCN(c2nc(=O)n3c4c(c(-c5cccc6ccccc56)c(Cl)cc24)SCC3)[C@@H](C)C1 [Example 155, (S)-7-((S)-4-acryloyl-2-methylpiperazin-1-yl)-9-chloro-10-(naphthalen-1-yl)-2,3-dihydro-5H-[1,4]thiazino[2,3,4-ij]quinazolin-5-one]	92.2%
C=CC(=O)N1[C@H](C)CN(c2nc(=O)n3c4c(c(-c5ccc(F)cc5F)c(Cl)cc24)SCC3)C[C@@H]1C [Example 157, 7-((3R,5S)-4-acryloyl-3,5-dimethylpiperazin-1-yl)-9-chloro-10-(2,4-difluorophenyl)-2,3-dihydro-5H-[1,4]thiazino[2,3,4-ij]quinazolin-5-one]	95%
C=CC(=O)N1C[C@H](C)N(c2nc(=O)n3c4c(c(-c5ccc(F)cc5F)c(Cl)cc24)S(=O)(=O)CC3)C[C@H]1C (atropisomer, axis not shown) [Example 177, (S)-7-((2S,5R)-4-acryloyl-2,5-dimethylpiperazin-1-yl)-9-chloro-10-(2,4-difluorophenyl)-2,3-dihydro-5H-[1,4]thiazino[2,3,4-ij]quinazolin-5-one 1,1-dioxide]	93.5%
C=CC(=O)N1CCN(c2nc(=O)n3c4c(c(-c5ccccc5F)c(Cl)cc24)SCC3)[C@@H](C)C1 [Example 160, 7-((S)-4-acryloyl-2-methylpiperazin-1-yl)-9-chloro-10-(2-fluorophenyl)-2,3-dihydro-5H-[1,4]thiazino[2,3,4-ij]quinazolin-5-one]	72.7%
C=CC(=O)N1CCN(c2nc(=O)n3c4c(c(-c5ccc(F)cc5F)c(C(F)(F)F)cc24)SCC3)C2CS(=O)(=O)CC21 (centres unmarked) [Example 100, 7-(4-acryloyl-6,6-dioxidohexahydrothieno[3,4-b]pyrazin-1(2H)-yl)-10-(2,4-difluorophenyl)-9-(trifluoromethyl)-2,3-dihydro-5H-[1,4]thiazino[2,3,4-ij]quinazolin-5-one]	94%
C=CC(=O)N1CCN(c2nc(=O)n3c4c(c(-c5cc(F)cc(Cl)c5)c(Cl)cc24)SCC3)[C@@H](C)C1 [Example 73, (S)-7-(4-acryloyl-2-methylpiperazin-1-yl)-9-chloro-10-(3-chloro-5-fluorophenyl)-2,3-dihydro-5H-[1,4]thiazino[2,3,4-ij]quinazolin-5-one]	73%

Further lines, results first:

% CAF @ 10 uM, 1h	Compound
82.4%	C=CC(=O)N1CCN(c2nc(=O)n3c4c(c(-c5ccc(F)cc5F)c(Cl)cc24)SC[C@H]3CC2CCN(C)CC2)[C@@H](C)C1 [Example 87, (3R)-7-((S)-4-acryloyl-2-methylpiperazin-1-yl)-9-chloro-10-(2,4-difluorophenyl)-3-((1-methylpiperidin-4-yl)methyl)-2,3-dihydro-5H-[1,4]thiazino[2,3,4-ij]quinazolin-5-one]
95.9%	C[C@H]1CN(C(=O)/C=C/C(F)F)CCN1c1nc(=O)n2c3c(c(-c4c(F)cc(F)cc4F)c(Cl)cc13)SCC2 [Example 120, (S,E)-9-chloro-7-(4-(4,4-difluorobut-2-enoyl)-2-methylpiperazin-1-yl)-10-(2,4,6-trifluorophenyl)-2,3-dihydro-5H-[1,4]thiazino[2,3,4-ij]quinazolin-5-one]

same assay, conditions: 10 μM, 1 h; Table 4

% CAF @ 10 μM, 1 h	Compound
96%	C=CC(=O)N1CCN(c2nc(=O)n3c4c(c(-c5ccc(F)cc5F)c(C(F)(F)F)cc24)SC[C@@H]3CN2CCN(CC(F)F)CC2)[C@@H](C)C1 [Example 19, (3S)-7-((S)-4-acryloyl-2-methylpiperazin-1-yl)-3-((4-(2,2-difluoroethyl)piperazin-1-yl)methyl)-10-(2,4-difluorophenyl)-9-(trifluoromethyl)-2H-[1,4]thiazino[2,3,4-ij]quinazolin-5(3H)-one]
96.5%	C=CC(=O)N1CCN(c2nc(=O)n3c4c(c(-c5ccc(F)cc5F)c(Cl)cc24)SC[C@H]3CCCN2C[C@@H]3C[C@H]2CO3)[C@@H](C)C1 [Example 341, (3R)-3-(3-((1S,4S)-2-oxa-5-azabicyclo[2.2.1]heptan-5-yl)propyl)-7-((S)-4-acryloyl-2-methylpiperazin-1-yl)-9-chloro-10-(2,4-difluorophenyl)-2H-[1,4]thiazino[2,3,4-ij]quinazolin-5(3H)-one]
